According to US8536202B2, “Triazole-substituted anthranilamides as pesticides” (Bayer Cropscience AG, priority 2010, dated 2013):
Read-outs that look alike come from different tables or passages of the source.

Tests used:
[1] = test system: caterpillars of the armyworm (Spodoptera frugiperda); experiment: Spodoptera frugiperda test (SPODFR spray treatment); format: in vivo; conditions: 168 h, read-out: activity in %
Description: (§1) Solvents: 78.0 parts by weight of acetone • • 1.5 parts by weight of dimethylformamide
(§2) Emulsifier: 0.5 part by weight of alkylaryl polyglycol ether
(§3) An appropriate preparation of active compound is prepared by mixing 1 part by weight of active compound with the stated amounts of solvent and emulsifier and diluting the concentrate with emulsifier-containing water to the desired concentration.
Leaf discs of maize (Zea mays) are sprayed with a preparation of active compound at the desired concentration and, after drying, are populated with caterpillars of the armyworm (Spodoptera frugiperda).
After 7 days, the activity in % is ascertained. Here, 100% means that all of the caterpillars have been killed; 0% means that no caterpillar has been killed.

[2] = log P determination by HPLC on reversed-phase columns (EEC Directive 79/831 Annex V.A8); format: physicochemical; conditions: pH 2.7
Description: Determination by LC-MS in the acidic range takes place at a pH of 2.7 using 0.1% aqueous formic acid and acetonitrile (containing 0.1% formic acid) as eluents, with a linear gradient from 10% acetonitrile to 95% acetonitrile.
Calibration was carried out using unbranched alkan-2-ones (having 3 to 16 carbon atoms) with known log P values (the log P values are determined from the retention times by linear interpolation between two successive alkanones).

[3] = test system: larvae of the mustard beetle (Phaedon cochleariae); experiment: Phaedon test (PHAECO spray treatment); format: in vivo; conditions: 168 h, 100 g/ha, after 7 days, read-out: activity in %
Description: as §1, §2, §3
After 7 days, the activity in % is ascertained. Here, 100% means that all of the beetle larvae have been killed; 0% means that no beetle larvae have been killed.

[4] = reversed-phase C18 HPLC column, HPLC on reversed-phase columns (C 18), EEC Directive 79/831 Annex V.A8, read-out: logP
[5] = HPLC on reversed-phase columns (C 18), EEC Directive 79/831 Annex V.A8, read-out: logP

SMILES | pest or weed control at 100 g/ha ([1]; 100 g/ha, after 7 days) | chromatographic logP [2] | further results
CNC(=O)c1cc(Cl)cc(C)c1NC(=O)c1cc(Cn2nnc3cc(C)ccc32)nn1-c1ncccc1Cl [Example 69] | 100% | 2.63 | –
CNC(=O)c1cc(Cl)cc(C)c1NC(=O)c1cc(Cn2nnc3cc(Cl)ccc32)nn1-c1ncccc1Cl [Example 68] | 100% | 2.9 | –
Cc1cc(Br)cc(C(=O)NC(C)C2CC2)c1NC(=O)c1cc(Cn2ncc(C(F)(F)F)n2)nn1-c1ncccc1Cl (centres unmarked) [Example 173] | – | 3.87 | –
CNC(=O)c1cc(C#N)cc(C)c1NC(=O)c1cc(Cn2cc(C(C)(C)C)nn2)nn1-c1ncccc1Cl [Example 31] | – | 2.25 | pest or weed control at 100 g/ha [3]: 100%
Cc1cc(C#N)cc(C(=O)NC(C)(C)C)c1NC(=O)c1cc(Cn2ncc(C(C)(C)C)n2)nn1-c1ncccc1Cl [Example 60] | – | 3.74 | –
Cc1cc(Cl)cc(C(=O)NC2CC2)c1NC(=O)c1cc(Cn2cc(C(F)(F)F)nn2)nn1-c1ncccc1Cl [Example 188] | – | 2.82 | –
Cc1cc(C#N)cc(C(=O)NC(C)(C)C)c1NC(=O)c1cc(Cn2ncc(C(C)C)n2)nn1-c1ncccc1Cl [Example 59] | – | 3.38 | –
CNC(=O)c1cc(Cl)cc(C)c1NC(=O)c1cc(Cn2cc(C(C)(C)C)nn2)nn1-c1ncccc1Cl [Example 15] | – | 2.53 | –
CNC(=O)c1cc(Cl)cc(C)c1NC(=O)c1cc(Cn2nnc3ccc(F)cc32)nn1-c1ncccc1Cl [Example 78] | 100% | 2.57 | –
Cc1cc(C#N)cc(C(=O)NC(C)(C)C)c1NC(=O)c1cc(Cn2ncc(C3CC3)n2)nn1-c1ncccc1Cl [Example 58] | 100% | 3.12 | –
CNC(=O)c1cc(C#N)cc(C)c1NC(=O)c1cc(Cn2ncc(C(C)C)n2)nn1-c1ncccc1Cl [Example 38] | – | 2.58 | pest or weed control at 100 g/ha [3]: 100%
Cc1cc(C#N)cc(C(=O)NC(C)(C)C)c1NC(=O)c1cc(Cn2ncc(C(F)(F)F)n2)nn1-c1ncccc1Br [Example 10] | 100% | – | chromatographic logP [2, 4]: 3.04
CNC(=O)c1cc(Cl)cc(C)c1NC(=O)c1cc(Cn2ncc(C(C)(C)C)n2)nn1-c1ncccc1Cl [Example 23] | 83% | 3.2 | –
Cc1cc(Cl)cc(C(=O)NC(C)(C)C)c1NC(=O)c1cc(Cn2ncc(C(C)(C)C)n2)nn1-c1ncccc1Cl [Example 48] | – | 4.25 | –
Cc1cc(C#N)cc(C(=O)NCC#N)c1NC(=O)c1cc(Cn2cc(C(F)(F)F)nn2)nn1-c1ncccc1Cl [Example 186] | – | 2.32 | pest or weed control at 100 g/ha [3]: 100%
Cc1cc(C#N)cc(C(=O)NC(C)(C)C)c1NC(=O)c1cc(Cn2cc(C(C)(C)C)nn2)nn1-c1ncccc1Cl [Example 52] | – | 3.02 | –
CNC(=O)c1cc(C#N)cc(C)c1NC(=O)c1cc(Cn2nnc3cc(Cl)c(Cl)cc32)nn1-c1ncccc1Cl [Example 80] | 100% | 2.96 | –
CCNC(=O)c1cc(C#N)cc(C)c1NC(=O)c1cc(Cn2cc(C(F)(F)C(F)(F)C(F)(F)F)nn2)nn1-c1ncccc1Cl [Example 330] | – | – | chromatographic logP [2, 5]: 3.24
Cc1cc(C#N)cc(C(=O)NC2CC2)c1NC(=O)c1cc(Cn2cc(C(F)(F)F)nn2)nn1-c1ncccc1Cl [Example 179] | – | 2.5 | –
Cc1cc(Cl)cc(C(=O)NC(C)(C)C)c1NC(=O)c1cc(Cn2ncc(-c3ccc(Cl)cc3)n2)nn1-c1ncccc1Cl [Example 49] | – | 4.58 | –
CNC(=O)c1cc(C#N)cc(C)c1NC(=O)c1cc(Cn2cc(-c3ccccc3Cl)nn2)nn1-c1ncccc1Cl [Example 35] | 100% | 2.63 | –
Cc1cc(Cl)cc(C(=O)NC(C)(C)C)c1NC(=O)c1cc(Cn2ncc(C(F)(F)C(F)(F)C(F)(F)F)n2)nn1-c1ncccc1Cl [Example 374] | – | – | pest or weed control at 100 g/ha [1]: 100%; chromatographic logP [2, 5]: 4.65
CNC(=O)c1cc(Cl)cc(C)c1NC(=O)c1cc(Cn2nnc3ccccc32)nn1-c1ncccc1Cl [Example 66] | 100% | 2.38 | –
Cc1cc(Cl)cc(C(=O)NC(C)(C)C)c1NC(=O)c1cc(Cn2cc(C(F)(F)F)nn2)nn1-c1ncccc1Cl [Example 191] | 100% | 3.44 | –
Cc1cc(C#N)cc(C(=O)NC(C)(C)C)c1NC(=O)c1cc(Cn2nnc3cc([N+](=O)[O-])ccc32)nn1-c1ncccc1Cl [Example 115] | 100% | 3.03 | –

SMILES | pest or weed control at 100 g/ha ([1]; 100 g/ha, after 7 days) | chromatographic logP [2] | further results
CNC(=O)c1cc(C#N)cc(C)c1NC(=O)c1cc(Cn2ncc(C3CC3)n2)nn1-c1ncccc1Cl [Example 37] | – | 2.28 | pest or weed control at 100 g/ha [3]: 100%
Cc1cc(Cl)cc(C(=O)NC(C)C)c1NC(=O)c1cc(Cn2ccnn2)nn1-c1ncccc1Cl [Example 116] | – | 2.12 | –
Cc1cc(C#N)cc(C(=O)NC(C)(C)C)c1NC(=O)c1cc(Cn2nnc3c(Cl)c(Cl)c(Cl)c(Cl)c32)nn1-c1ncccc1Cl [Example 104] | – | 4.64 | –
CNC(=O)c1cc(C#N)cc(C)c1NC(=O)c1cc(Cn2nc3c(Cl)c(Cl)c(Cl)c(Cl)c3n2)nn1-c1ncccc1Cl [Example 93] | – | 4.24 | –
CNC(=O)c1cc(Cl)cc(C)c1NC(=O)c1cc(Cn2cc(C(C)C)nn2)nn1-c1ncccc1Cl [Example 14] | – | 2.29 | pest or weed control at 100 g/ha [3]: 83%
Cc1cc(C#N)cc(C(=O)NC(C)(C)C)c1NC(=O)c1cc(Cn2cc(C(F)(F)F)nn2)nn1-c1ccccc1Cl [Example 292] | 100% | – | chromatographic logP [2, 4]: 3.48
O=C(NC1CC1)c1cc(Cl)cc(Cl)c1NC(=O)c1cc(Cn2cc(C(F)(F)F)nn2)nn1-c1ncccc1Cl [Example 199] | 100% | 2.89 | –
CNC(=O)c1cc(C#N)cc(C)c1NC(=O)c1cc(Cn2nnc3ccc(F)cc32)nn1-c1ncccc1Cl [Example 82] | 100% | 2.24 | –
CNC(=O)c1cc(Cl)cc(C)c1NC(=O)c1cc(Cn2ncc(C(C)C)n2)nn1-c1ncccc1Cl [Example 22] | 100% | 2.85 | –
CNC(=O)c1cc(Cl)cc(C)c1NC(=O)c1cc(Cn2nc3ccc(C)cc3n2)nn1-c1ncccc1Cl [Example 73] | – | 3.05 | –
CC(C)NC(=O)c1cc(Cl)cc(Cl)c1NC(=O)c1cc(Cn2cc(C(F)(F)F)nn2)nn1-c1ncccc1Cl [Example 200] | 100% | 3.1 | –
CNC(=O)c1cc(Cl)cc(C)c1NC(=O)c1cc(Cn2cc(C3CC3)nn2)nn1-c1ncccc1Cl [Example 13] | – | 2.14 | –
Cc1cc(Cl)cc(C(=O)NC(C)(C)C)c1NC(=O)c1cc(Cn2ncc(C(C)C)n2)nn1-c1ncccc1Cl [Example 47] | – | 3.86 | –
Cc1cc(F)cc(C(=O)NC(C)(C)C)c1NC(=O)c1cc(Cn2ncc(C(F)(F)F)n2)nn1-c1ncccc1Cl [Example 171] | 100% | 4.02 | –
Cc1cc(C#N)cc(C(=O)NC(C)(C)C)c1NC(=O)c1cc(Cn2nnc3cc(Br)ccc32)nn1-c1ncccc1Cl [Example 106] | 100% | 3.31 | –
CNC(=O)c1cc(Cl)cc(C)c1NC(=O)c1cc(Cn2nnc3cc(Cl)c(Cl)cc32)nn1-c1ncccc1Cl [Example 76] | – | 3.33 | –
CNC(=O)c1cc(Cl)cc(C)c1NC(=O)c1cc(Cn2nnc3c(Cl)c(Cl)c(Cl)c(Cl)c32)nn1-c1ncccc1Cl [Example 84] | 100% | 4.19 | –
Cc1cc(C#N)cc(C(=O)NC(C)(C)C)c1NC(=O)c1cc(Cn2cc(C(C)C)nn2)nn1-c1ncccc1Cl [Example 51] | – | 2.74 | –
CNC(=O)c1cc(C#N)cc(C)c1NC(=O)c1cc(Cn2cc(-c3ccc(F)cc3)nn2)nn1-c1ncccc1Cl [Example 32] | 100% | 2.41 | –
CNC(=O)c1cc(C#N)cc(C)c1NC(=O)c1cc(Cn2nc3ccc(F)cc3n2)nn1-c1ncccc1Cl [Example 83] | 100% | 2.55 | –
CNC(=O)c1cc(C#N)cc(C)c1NC(=O)c1cc(Cn2nnc3cc([N+](=O)[O-])ccc32)nn1-c1ncccc1Cl [Example 103] | 100% | 2.34 | –
Cc1cc(C#N)cc(C(=O)NC(C)(C)C)c1NC(=O)c1cc(Cn2nc3c(Cl)c(Cl)c(Cl)c(Cl)c3n2)nn1-c1ncccc1Cl [Example 105] | – | 5.13 | –
Cc1cc(C#N)cc(C(=O)NC(C)(C)C)c1NC(=O)c1cc(Cn2cc(-c3ccccc3Cl)nn2)nn1-c1ncccc1Cl [Example 56] | 83% | 3.45 | –
CNC(=O)c1cc(Cl)cc(C)c1NC(=O)c1cc(Cn2nc3ccccc3n2)nn1-c1ncccc1Cl [Example 67] | 100% | 2.75 | –
CNC(=O)c1cc(Cl)cc(C)c1NC(=O)c1cc(Cn2nc3c(Cl)c(Cl)c(Cl)c(Cl)c3n2)nn1-c1ncccc1Cl [Example 85] | – | 4.66 | –
